From patent US11084808B2, “Oxopicolinamide derivative, preparation method therefor and pharmaceutical use thereof” (Jiangsu Hengrui Medicine Co., Ltd., priority 2016, dated 2021)

test system: human blood; experiment: In vitro anticoagulant effect on human blood (APTT, CT2); format: biochemical; details: Table 2; concentration of the compound corresponding to 2 times the APTT of the blank control; human plasma
Protocol: Test Example 2: Determination of In Vitro Anticoagulant Effect of the Compounds of the Present Invention on Human Blood
1. Experimental Materials
Plasma: Human blood was collected in blood collection tubes containing no anticoagulant, and then 3.8% sodium citrate (volume ratio 1:9) was added. The tubes were centrifuged at 2500 rpm for 10 minutes at room temperature, and then the plasma was collected and stored at −80° C.:
Reagents: APTT reagent (Activated partial thromboplastin time assay kit, SIEMENS, Art. No. B4218-1), calcium chloride solution;
Instrument: Coagulation instrument (SYSMEX, CA-500).
The divided plasma was melted at room temperature and mixed well. 10000 μM the test compound dissolved in 100% DMSO was diluted to 3000, 300, 200, 150, 75, 30, 10, 3, 0.3 μM with 100% DMSO, and the blank was 100% DMSO. The reagent, plasma, and compound were placed in corresponding positions in the coagulation instrument, and APTT detection of the compound was carried out.
Curve fitting was carried out by graphpad and CT2 was calculated, i.e., the concentration of the compound corresponding to 2 times the APTT of the blank control.

**Q.** For `COc1cn(C(Cc2ccn(C)n2)C(=O)Nc2ccc(C(=O)O)cc2)c(=O)cc1-c1cc(Cl)ccc1C(C)=O` (centres unmarked) [Example 100, 4-(2-(4-(2-acetyl-5-chlorophenyl)-5-methoxy-2-oxopyridin-(2H)-yl)-3-(1-methyl-1H-pyrazol-3-yl)propanamido)benzoic acid], which “CT2 (compound concentration doubling APTT)” value is on record?
**A.** 3.3 µM

**Q.** For `COc1cn([C@H](Cc2cnn(C)c2)C(=O)Nc2ccc(C(=O)O)cc2)c(=O)cc1-c1cc(Cl)ccc1C(C)=O` [Example 104, (R)-4-(2-(4-(2-acetyl-5-chlorophenyl)-5-methoxy-2-oxopyridin-1(2H)-yl)-3-(1-methyl-1H-pyrazol-4-yl)propanamido)benzoic acid], which “CT2 (compound concentration doubling APTT)” value is on record?
**A.** >10000 µM

**Q.** With `COc1cn([C@@H](Cc2cnn(C)c2)C(=O)Nc2ccc(C(=O)O)cc2)c(=O)cc1-c1cc(Cl)ccc1C(C)=O` [Example 105, (S)-4-(2-(4-(2-acetyl-5-chlorophenyl)-5-methoxy-2-oxopyridin-1(2H)-yl)-3-(1-methyl-1H-pyrazol-4-yl)propanamido)benzoic acid] as the molecule, how does the “CT2 (compound concentration doubling APTT)” value read?
**A.** 6.9 µM

**Q.** For `CCC(=O)c1ccc(Cl)cc1-c1cc(=O)n([C@@H](CCOC(C)(C)C)C(=O)Nc2ccc(C(=O)O)cc2)cc1OC` [Example 108, (S)-4-(4-(tert-butoxy)-2-(4-(5-chloro-2-propionylphenyl)-5-methoxy-2-oxopyridin-1(2H)-yl)butanamido)benzoic acid], which “CT2 (compound concentration doubling APTT)” value is on record?
**A.** 1.4 µM

**Q.** For `CCC(=O)c1ccc(Cl)cc1-c1cc(=O)n([C@H](CCOC(C)(C)C)C(=O)Nc2ccc(C(=O)O)cc2)cc1OC` [Example 109, (R)-4-(4-(tert-butoxy)-2-(4-(5-chloro-2-propionylphenyl)-5-methoxy-2-oxopyridin-1(2H)-yl)butanamido)benzoic acid], which “CT2 (compound concentration doubling APTT)” value is on record?
**A.** >10000 µM

**Q.** With `COc1cn([C@@H](CCOC(C)(C)C)C(=O)Nc2ccc(C(=O)O)cc2)c(=O)cc1-c1cc(Cl)ccc1C(C)=O` [Example 111, (S)-4-(2-(4-(2-acetyl-5-chlorophenyl)-5-methoxy-2-oxopyridin-1(2H)-yl)-4-(tert-butoxy)butanamido)benzoic acid] as the molecule, how does the “CT2 (compound concentration doubling APTT)” value read?
**A.** 3.2 µM

**Q.** For `COc1cn([C@H](CCOC(C)(C)C)C(=O)Nc2ccc(C(=O)O)cc2)c(=O)cc1-c1cc(Cl)ccc1C(C)=O` [Example 112, (R)-4-(2-(4-(2-acetyl-5-chlorophenyl)-5-methoxy-2-oxopyridin-(2H)-yl)-4-(tert-butoxy)butanamido)benzoic acid], which “CT2 (compound concentration doubling APTT)” value is on record?
**A.** >10000 µM

**Q.** Which “CT2 (compound concentration doubling APTT)” value does the source give for `CCC(=O)c1ccc(Cl)cc1-c1cc(=O)n([C@@H](CCOC(C)(C)C)C(=O)Nc2ccc3nccnc3c2)cc1OC` [Example 114, (S)-4-(tert-butoxy)-2-(4-(5-chloro-2-propionylphenyl)-5-methoxy-2-oxopyridin-1(2H)-yl)-N-(quinoxalin-6-yl)butanamide] here?
**A.** 3.6 µM

**Q.** For `COc1cn([C@H](CC2CCC2)C(=O)Nc2ccc(C(=O)O)cc2)c(=O)cc1-c1c(C(C)=O)ccc(Cl)c1F` [Example 160, (R)-4-(2-(4-(6-acetyl-3-chloro-2-fluorophenyl)-5-methoxy-2-oxopyridin-1(2H)-yl)-3-cyclobutylpropanamido)benzoic acid], which “CT2 (compound concentration doubling APTT)” value is on record?
**A.** 3.8 µM

**Q.** With `COc1cn([C@H](CCOC2CCC2)C(=O)Nc2ccc(C(=O)O)cc2)c(=O)cc1-c1cc(Cl)ccc1C(C)=O` [Example 163, (R)-4-(2-(4-(2-acetyl-5-chlorophenyl)-5-methoxy-2-oxopyridin-1(2H)-yl)-4-cyclobutoxybutanamido)benzoic acid] as the molecule, how does the “CT2 (compound concentration doubling APTT)” value read?
**A.** >10000 µM

**Q.** With `COc1cn([C@@H](CCOC2CCC2)C(=O)Nc2ccc(C(=O)O)cc2)c(=O)cc1-c1cc(Cl)ccc1C(C)=O` [Example 164, (S)-4-(2-(4-(2-acetyl-5-chlorophenyl)-5-methoxy-2-oxopyridin-1(2H)-yl)-4-cyclobutoxybutanamido)benzoic acid] as the molecule, how does the “CT2 (compound concentration doubling APTT)” value read?
**A.** 6.4 µM

**Q.** Which “CT2 (compound concentration doubling APTT)” value does the source give for `CCC(=O)c1ccc(Cl)cc1-c1cc(=O)n(C(CC2CCCCO2)C(=O)Nc2ccc(C(=O)O)cc2)cc1OC` (centres unmarked) [Example 166] here?
**A.** 7.2 µM

**Q.** With `[2H]C([2H])([2H])Oc1cn([C@@H](CCOC(C)(C)C)C(=O)Nc2ccc(C(=O)O)cc2)c(=O)cc1-c1cc(Cl)ccc1C(=O)CC` [Example 177, 4-[[(2S)-4-tert-butoxy-2-[4-(5-chloro-2-propionyl-phenyl)-2-oxo-5-(trideuteromethoxy)-1-pyridyl]butyryl]amino]benzoic acid] as the molecule, how does the “CT2 (compound concentration doubling APTT)” value read?
**A.** 1.5 µM

**Q.** For `[2H]C([2H])([2H])Oc1cn([C@H](CCOC(C)(C)C)C(=O)Nc2ccc(C(=O)O)cc2)c(=O)cc1-c1cc(Cl)ccc1C(=O)CC` [Example 178, 4-[[(2R)-4-tert-butoxy-2-[4-(5-chloro-2-propionyl-phenyl)-2-oxo-5-(trideuteromethoxy)-1-pyridyl]butyryl]amino]benzoic acid], which “CT2 (compound concentration doubling APTT)” value is on record?
**A.** >10000 µM

**Q.** For `[2H]C([2H])([2H])Oc1cn([C@@H](Cc2ccccc2)C(=O)Nc2ccc(C(=O)O)cc2)c(=O)cc1-c1cc(Cl)ccc1C(C)=O` [Example 179, 4-[[(2S)-2-[4-(2-acetyl-5-chloro-phenyl)-2-oxo-5-(trideuteromethoxy)-1-pyridyl]-3-phenyl-propionyl]amino]benzoic acid], which “CT2 (compound concentration doubling APTT)” value is on record?
**A.** 3.3 µM

**Q.** For `[2H]C([2H])([2H])Oc1cn([C@H](Cc2ccccc2)C(=O)Nc2ccc(C(=O)O)cc2)c(=O)cc1-c1cc(Cl)ccc1C(C)=O` [Example 180, 4-[[(2R)-2-[4-(2-acetyl-5-chloro-phenyl)-2-oxo-5-(trideuteromethoxy)-1-pyridyl]-3-phenyl-propionyl]amino]benzoic acid], which “CT2 (compound concentration doubling APTT)” value is on record?
**A.** >10000 µM

**Q.** With `[2H]c1c([2H])c([2H])c(C([2H])([2H])[C@@H](C(=O)Nc2ccc(C(=O)O)cc2)n2cc(OC)c(-c3cc(Cl)ccc3C(C)=O)cc2=O)c([2H])c1[2H]` [Example 181, 4-[[(2S)-2-[4-(2-acetyl-5-chloro-phenyl)-5-methoxy-2-oxo-1-pyridyl]-3,3-dideutero-3-(2,3,4,5,6-pentadeuterophenyl)propionyl]amino]benzoic acid] as the molecule, how does the “CT2 (compound concentration doubling APTT)” value read?
**A.** 2.3 µM

**Q.** For `[2H]C([2H])([2H])C(=O)c1ccc(Cl)cc1-c1cc(=O)n([C@@H](Cc2ccccc2)C(=O)Nc2ccc(C(=O)O)cc2)cc1OC` [Example 183, 4-[[(2S)-2-[4-[5-chloro-2-(2,2,2-trideuteroacetyl)phenyl]-5-methoxy-2-oxo-1-pyridyl]-3-phenyl-propionyl]amino]benzoic acid], which “CT2 (compound concentration doubling APTT)” value is on record?
**A.** 2.6 µM

**Q.** For `[2H]C([2H])([2H])C(=O)c1ccc(Cl)cc1-c1cc(=O)n([C@H](Cc2ccccc2)C(=O)Nc2ccc(C(=O)O)cc2)cc1OC` [Example 184, 4-[[(2R)-2-[4-[5-chloro-2-(2,2,2-trideuteroacetyl)phenyl]-5-methoxy-2-oxo-1-pyridyl]-3-phenyl-propionyl]amino]benzoic acid], which “CT2 (compound concentration doubling APTT)” value is on record?
**A.** >10000 µM

same assay, conditions: Table 3 comparison with similar compounds in the published patents; human plasma

**Q.** For `CCC(=O)c1ccc(Cl)cc1-c1cc(=O)n([C@@H](CCOC(C)(C)C)C(=O)Nc2ccc3nccnc3c2)cc1OC` [Example 114, (S)-4-(tert-butoxy)-2-(4-(5-chloro-2-propionylphenyl)-5-methoxy-2-oxopyridin-1(2H)-yl)-N-(quinoxalin-6-yl)butanamide], which “CT2 (compound concentration doubling APTT)” value is on record?
**A.** 2.9 µM

same assay, conditions: from Table 3

**Q.** With `CCC(=O)c1ccc(Cl)cc1-c1cc(=O)n([C@@H](CCOC(C)(C)C)C(=O)Nc2ccc3nccnc3c2)cc1OC` [Example 114, (S)-4-(tert-butoxy)-2-(4-(5-chloro-2-propionylphenyl)-5-methoxy-2-oxopyridin-1(2H)-yl)-N-(quinoxalin-6-yl)butanamide] as the molecule, how does the “CT2 value ratio of Example 114 and comparative Example 2” value read?
**A.** 4.5 times

test system: not listed separately; experiment: Pharmacokinetics assay in rats after intragastrical administration; format: in vivo, Sprague-Dawley (SD) rats; details: intragastric, 2 mg/kg
From the text: Test Example 3. Pharmacokinetics Assay of the Compounds of the Present Invention
Rats were used as test animals. […] The pharmacokinetic behavior of the compounds of the present invention was studied and evaluated in rats.
56 healthy adult Sprague-Dawley (SD) rats, half male and half female, were purchased from SINO-BRITSH SIPPR/BK LAB. ANIMAL LTD., CO, with License No.: SCXK (Shanghai) 2008-0016.
2.3 Preparation of the Test Compounds
A certain amount of the test compound was weighed, and added with 5% by volume of DMSO, 5% by volume of Tween 80 and 90% normal saline to prepare a 0.2 mg/mL colorless, clear and transparent solution.
After an overnight fast, SD rats were intragastrically administered at a dose of 2.0 mg/kg and an administration volume of 10.0 mL/kg.
Example 111, Example 114, Example 160. Example 171 and Comparative Example 1. Blood (0.2 mL) was taken from the orbital sinus before administration and at 0.5, 1.0, 2.0, 4.0, 6.0, 8.0, 11.0 and 24.0 hours after administration. […]
The content of the test compound in the plasma of rats after intragastric administration of different concentrations of the drug was determined: 25 μL of rat plasma at each time after administration was taken and added with 30 μL (100 ng/mL) of the internal standard solution of camptothecin and 200 μL of acetonitrile, shaken vertically for 5 minutes, and centrifuged for 10 minutes (4000 rpm). […]

**Q.** With `COc1cn([C@@H](Cc2cccnc2)C(=O)Nc2ccc(C(=O)O)cc2)c(=O)cc1-c1cc(Cl)ccc1C(C)=O` [Example 84, (S)-4-(2-(4-(2-acetyl-5-chlorophenyl)-5-methoxy-2-oxopyridin-1(2H)-yl)-3-(pyridin-3-yl)propanamido)benzoic acid] as the molecule, how does the “AUC difference versus Comparative Example 1” value read?
**A.** 7.5 times

**Q.** And the “Cmax difference versus Comparative Example 1” value?
**A.** 6.9 times
